Experimental data as given in PMC8286840, “Identifying SARS-CoV-2 antiviral compounds by screening for small molecule inhibitors of Nsp3 papain-like protease” (Biochemical Journal, 2021).
Structures can show the parent of a compound that is named as a salt. Where two headings read alike, the source gives them in different places. Where a SMILES comes first, the peptide text is derived from it. [ ]: non-standard residue; d: D form. pGlu = O=C1CC[C@@H](C(=O)O)N1; Thz = O=C(O)[C@@H]1CSCN1

Key:
[1] = target: T1, SARS-CoV-2 PLpro (nsp3 1564–1878) (Severe acute respiratory syndrome coronavirus 2, UniProt P0DTD1); assay: biochemical; parameters: FRET-quenched peptide (Pro3) cleavage by PLpro, 10 min pre-incubation, slope over 20 min, normalised to no-compound control; conditions: low concentration screen, read-out: % of control remaining
[2] = target: T1, SARS-CoV-2 PLpro (nsp3 1564–1878); assay: biochemical; parameters: FRET-quenched peptide (Pro3) cleavage by PLpro, 10 min pre-incubation, slope over 20 min, normalised to no-compound control; conditions: high concentration screen, read-out: % of control remaining

With `Nc1nc2[nH]cc(CCc3ccc(C(=O)N[C@@H](CCC(=O)O)C(=O)O)cc3)c2c(=O)[nH]1` [Pemetrexed (Alimta)] the remaining activity at 1.25 µM ([1]; Well no.=4677) was 98.1% and the remaining activity at 3.75 µM ([2]; Well no.=4677) was 98.7%.

`CC1(C)CCC(C)(C)c2cc(C(=O)Nc3ccc(C(=O)O)cc3)ccc21` [AM-580] was tested, and the remaining activity at 1.25 µM ([1]; Well no.=4434) was 92.7% and the remaining activity at 3.75 µM ([2]; Well no.=4434) was 86%.

For `Oc1ccc2c3c1O[C@H]1c4[nH]c5c(c4C[C@@]4(O)[C@@H](C2)N(CC2CC2)CC[C@]314)C[C@@]1(O)[C@H]2Cc3ccc(O)c4c3[C@@]1(CCN2CC1CC1)[C@H]5O4` [nor-Binaltorphimine dihydrochloride], the remaining activity at 1.25 µM ([1]; Well no.=805) was 100% and the remaining activity at 3.75 µM ([2]; Well no.=805) was 97%.

`O=C(O)C1=CC(=C(c2ccc(O)c(C(=O)O)c2)c2ccc(O)c(C(=O)O)c2)C=CC1=O` [Aurintricarboxylic acid] gave a remaining activity at 1.25 µM ([1]; Well no.=249) of 97.6% and a remaining activity at 3.75 µM ([2]; Well no.=249) of 109%.

`COc1ccc(O)cc1` [Mequinol] was tested, and the remaining activity at 1.25 µM ([1]; Well no.=4736) was 100% and the remaining activity at 3.75 µM ([2]; Well no.=4736) was 99.8%.

`Cn1cc(C2=C(c3ccc(Cl)cc3Cl)C(=O)NC2=O)c2ccccc21` [SB 216763 - 3-(2,4-Dichlorophenyl)-4-(1-methyl-1H-indol-3-yl)-1H-pyrrole-2,5-dione] was tested, and the remaining activity at 1.25 µM ([1]; Well no.=2442) was 96.9% and the remaining activity at 3.75 µM ([2]; Well no.=2442) was 100%.

`O=C1CC[C@@H](C(=O)N2CSC[C@H]2C(=O)O)N1` [Pidotimod] ([pGlu]-[Thz]-OH) gave a remaining activity at 1.25 µM ([1]; Well no.=7508) of 101%, a remaining activity at 3.75 µM ([2]; Well no.=4933) of 105% and a remaining activity at 3.75 µM ([2]; Well no.=7508) of 97.7%.

`COc1cc(-c2ccc(=O)[nH]n2)ccc1OC(F)F` [Zardaverine] showed a remaining activity at 1.25 µM ([1]; Well no.=1438) of 95.5%, a remaining activity at 1.25 µM ([1]; Well no.=2190) of 97.5% and a remaining activity at 3.75 µM ([2]; Well no.=1438) of 94.9%. For the same molecule, the remaining activity at 3.75 µM ([2]; Well no.=2190) was 98.2%.

With `O=C(O)CCCCCCCCCC(=O)O` [Undecanedioic acid] the remaining activity at 1.25 µM ([1]; Well no.=6785) was 102% and the remaining activity at 3.75 µM ([2]; Well no.=6785) was 99.4%.

In the case of `CC1CCc2cc(F)cc3c(=O)c(C(=O)O)cn1c23` (stereo not drawn) [Flumequine], the remaining activity at 1.25 µM ([1]; Well no.=5032) is reported as 96.8% and the remaining activity at 3.75 µM ([2]; Well no.=5032) is reported as 97.6%.

Molecule `C=CC(=O)N1CC/C(=C\c2ccc(F)c([N+](=O)[O-])c2)C(=O)/C(=C/c2ccc(F)c([N+](=O)[O-])c2)C1` [VLX1570] has a remaining activity at 1.25 µM ([1]; Well no.=7794) of 95.6% and a remaining activity at 3.75 µM ([2]; Well no.=7794) of 95.4%.

For `O=C(O)[C@H]1NCCC[C@H]1C(=O)O`, the remaining activity at 1.25 µM ([1]; Well no.=1161) was 106% and the remaining activity at 3.75 µM ([2]; Well no.=1161) was 106%.

In the case of `CC1=CC(=O)C(C(C)C)=CC1=O` [Thymoquinone], the remaining activity at 1.25 µM ([1]; Well no.=3567) is reported as 101%, the remaining activity at 1.25 µM ([1]; Well no.=4095) is reported as 102% and the remaining activity at 3.75 µM ([2]; Well no.=3567) is reported as 102%. It also gave a remaining activity at 3.75 µM ([2]; Well no.=4095) of 101%.

In the case of `COC(=O)Nc1nc2cc(C(=O)c3cccs3)ccc2[nH]1` [Nocodazole], the remaining activity at 1.25 µM ([1]; Well no.=824) is reported as 99.3%, the remaining activity at 1.25 µM ([1]; Well no.=6258) is reported as 96.5% and the remaining activity at 3.75 µM ([2]; Well no.=824) is reported as 101%. For the same molecule, the remaining activity at 3.75 µM ([2]; Well no.=6258) was 94.1%.

For `CCN(CC)CC(=O)Nc1c(C)cccc1C` [Lidocaine hydrochloride], the remaining activity at 1.25 µM ([1]; Well no.=883) was 104% and the remaining activity at 3.75 µM ([2]; Well no.=883) was 108%.

With `O=C(CCCN1CCC(O)(c2cccc(C(F)(F)F)c2)CC1)c1ccc(F)cc1` [Trifluperidol hydrochloride] the remaining activity at 1.25 µM ([1]; Well no.=1376) was 96.4% and the remaining activity at 3.75 µM ([2]; Well no.=1376) was 94.4%.

`Cc1cccc(Nc2cc(Cl)nc(SCC(=O)O)n2)c1C` [WY-14643] was tested, and the remaining activity at 1.25 µM ([1]; Well no.=4570) was 97.3% and the remaining activity at 3.75 µM ([2]; Well no.=4570) was 103%.

`O=C(Nc1cccc2c(=O)cc(-c3nnn[nH]3)oc12)c1ccc(OCCCCc2ccccc2)cc1` [Pranlukast] gave a remaining activity at 1.25 µM ([1]; Well no.=1720) of 99.8%, a remaining activity at 1.25 µM ([1]; Well no.=7329) of 103% and a remaining activity at 3.75 µM ([2]; Well no.=1720) of 101%. For the same molecule, the remaining activity at 3.75 µM ([2]; Well no.=7329) was 98.4%.

`O=c1[nH]c(=O)n([C@H]2C[C@H](O)[C@@H](CO)O2)cc1C(F)(F)F` [Trifluridine] gave a remaining activity at 1.25 µM ([1]; Well no.=6438) of 98%, a remaining activity at 1.25 µM ([1]; Well no.=8058) of 85.9% and a remaining activity at 3.75 µM ([2]; Well no.=6438) of 98.3%. For the same molecule, the remaining activity at 3.75 µM ([2]; Well no.=8058) was 86.7%.

In the case of `OC[C@H]1O[C@@H](n2cnc3c(NCCc4ccccc4)ncnc32)[C@H](O)[C@@H]1O` [N6-2-Phenylethyladenosine], the remaining activity at 1.25 µM ([1]; Well no.=1453) is reported as 98.5% and the remaining activity at 3.75 µM ([2]; Well no.=1453) is reported as 98.6%.

Work on `CC(=O)O[C@H]1C[C@@H]2CC[C@@H]3[C@H](CC[C@@]4(C)[C@H]3C[C@H]([N+]3(C)CCCCC3)[C@@H]4OC(C)=O)[C@@]2(C)C[C@@H]1[N+]1(C)CCCCC1` [Pancuronium bromide] yielded a remaining activity at 1.25 µM ([1]; Well no.=808) of 98.5% and a remaining activity at 3.75 µM ([2]; Well no.=808) of 97.8%.

With `COC1=C2C[C@@H](C)C[C@H](OC)[C@H](O)[C@@H](C)/C=C(\C)[C@H](OC(N)=O)[C@@H](OC)/C=C\C=C(/C)C(=O)NC(=CC1=O)C2=O` [Geldanamycin] the remaining activity at 1.25 µM ([1]; Well no.=5019) was 98.5% and the remaining activity at 3.75 µM ([2]; Well no.=5019) was 101%.

In the case of `COc1ccc(-c2cc(=O)c3c(O)c(OC)c(OC)cc3o2)cc1O` [5-hydroxy-2-(3-hydroxy-4-methoxyphenyl)-6,7-dimethoxy-4H-chromen-4-one], the remaining activity at 1.25 µM ([1]; Well no.=5983) is reported as 98.6% and the remaining activity at 3.75 µM ([2]; Well no.=5983) is reported as 95.3%.

`Cn1c(=O)c2[nH]c(=O)[nH]c2n(C)c1=O` [1,3-Dimethyluric acid] gave a remaining activity at 1.25 µM ([1]; Well no.=6819) of 99.4% and a remaining activity at 3.75 µM ([2]; Well no.=6819) of 95.7%.

`CCCCCCCCCCC/C=C\CCCCCCC(=O)O` [8(Z)-Eicosenoic acid] showed a remaining activity at 1.25 µM ([1]; Well no.=4404) of 102% and a remaining activity at 3.75 µM ([2]; Well no.=4404) of 102%.

In the case of `CC(C[N+](C)(C)C)OC(N)=O` (stereo not drawn) [Bethanechol (chloride)], the remaining activity at 1.25 µM ([1]; Well no.=7565) is reported as 99.8% and the remaining activity at 3.75 µM ([2]; Well no.=7565) is reported as 92.1%.

With `COc1ccc(Cc2nccc3cc(OC)c(OC)cc23)cc1OC` [Papaverine hydrochloride] the remaining activity at 1.25 µM ([1]; Well no.=1144) was 98.1% and the remaining activity at 3.75 µM ([2]; Well no.=1144) was 98.9%.

`O=C1NCCN1CCN1CCC(c2cn(-c3ccc(F)cc3)c3ccc(Cl)cc23)CC1` [Sertindole] was tested, and the remaining activity at 1.25 µM ([1]; Well no.=5420) was 98.4%, the remaining activity at 1.25 µM ([1]; Well no.=6604) was 93.4% and the remaining activity at 3.75 µM ([2]; Well no.=5420) was 102%. It also gave a remaining activity at 3.75 µM ([2]; Well no.=6604) of 96.1%.

`CCCCCCCCCCCCCCCCCC(=O)NCC(COP(=O)([O-])OCC[N+](C)(C)C)OCC` (racemic) [rac-2-Ethoxy-3-octadecanamido-1-propylphosphocholine] was tested, and the remaining activity at 1.25 µM ([1]; Well no.=413) was 102% and the remaining activity at 3.75 µM ([2]; Well no.=413) was 101%.

For `O=c1cc(-c2cccc3c2Sc2ccccc2S3)oc(N2CCOCC2)c1` [KU 55933 - 2-(4-Morpholinyl)-6-(1-thianthrenyl)-4H-pyran-4-one], the remaining activity at 1.25 µM ([1]; Well no.=2438) was 101% and the remaining activity at 3.75 µM ([2]; Well no.=2438) was 103%.

`C=C1CC[C@H]2C(=C)CC[C@H]3C(=C)C(=O)O[C@@H]3[C@@H]12` [Dehydrocostus lactone] was tested, and the remaining activity at 1.25 µM ([1]; Well no.=3206) was 101% and the remaining activity at 3.75 µM ([2]; Well no.=3206) was 100%.
